Assays:
[1] = target: T1, Ec IspD (Escherichia coli, UniProt Q46893); assay: Thermal shift (DSF) screening against Ec IspD; assay type: binding; conditions: for change in the observed melting temperature of Ec IspD: MicroSource Spectrum screening
Method: The library based screening technique in conjunction with the thermal shift assay was implemented to evaluate compounds from Spectrum collection.
All DSF experiments were performed in 50 mM phosphate buffer at pH 7.4, 150 mM NaCl, 1×SYPRO orange, 2% DMSO and 200 to 1000 nM of the enzyme with a total volume of 25 μL. Final enzyme concentrations used were […] for Ec IspD and 0.5 μM for Bt IspD. Samples were measured on a Bio-Rad iQ5 Real-Time PCR (Bio-Rad Life Sciences) using a temperature range of 25 to 95° C. at a rate of 1° C. per minute with the fluorescence measured every 0.5° C. every 10 seconds with wavelengths of 530 and 570 nm used for excitation and emission, respectively. The melting temperature (Tm value) was determined from the first derivative of the graph of relative fluorescence units vs. temperature.

[2] = target: T2, Mycobacterium tuberculosis IspD (MtIspD) (Mycobacterium tuberculosis, UniProt P9WKG9); assay: Thermal shift assay against MtIspD; assay type: binding
T2 sequence (P9WKG9 1-231): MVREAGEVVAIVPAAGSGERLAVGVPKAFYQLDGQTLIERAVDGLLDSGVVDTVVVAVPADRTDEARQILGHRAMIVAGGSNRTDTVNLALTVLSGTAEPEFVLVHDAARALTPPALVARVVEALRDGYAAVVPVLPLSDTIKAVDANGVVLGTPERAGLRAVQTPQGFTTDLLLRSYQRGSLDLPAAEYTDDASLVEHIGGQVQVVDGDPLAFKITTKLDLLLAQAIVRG

[3] = target: Lycopersicon esculentum IspE (LeIspE) (Solanum lycopersicum, UniProt P93841); assay: Thermal shift assay against LeIspE; assay type: binding
[4] = system: lettuce seeds; assay: Lettuce leaf assay; assay type: in vivo; set-up: key: 0 (no effect); 5(complete inhibition or bleaching); conditions: ranking 0-5
Outline: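 Qualitative assay: compounds in volatile organic solvent applied to filter paper in a petri dish, solvent evaporated, lettuce seeds and 5 mL water added to give test concentrations. Germination, root development and leaf bleaching scored days 3 and 4, ranked 0 (no effect) to 5 (complete inhibition or bleaching).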

[5] = target: AtIspD (Arabidopsis thaliana, UniProt P69834); assay: University of Hamburg photometric enzymatic inhibition assay AtIspD; assay type: biochemical; conditions: read-out: AtIspD IC50
Outline: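 Coupled photometric assay: 2.4 mU AtIspD with 1 mM (2R,3S)-2,3-dihydroxy-4-oxopentyl phosphate, 2.1 mM CTP, excess IspE (0.4 U), ATP, pyruvate kinase/lactate dehydrogenase and 460 μM NADH. Run in 100 mM Tris-HCl pH 8.0, 10 mM MgCl2, 1 mM DTT, 1.1% DMSO at 27 °C, monitored photometrically.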

[6] = target: LeIspE (Solanum lycopersicum, UniProt P93841); assay: University of Hamburg photometric enzymatic inhibition assay LeIspE; assay type: biochemical, Lycopersicon esculentum; conditions: read-out: LeIspE IC50
Outline: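 Photometric coupled assay with pyruvate kinase/lactate dehydrogenase following NADH (460 μM). Mix: 100 mM Tris-HCl pH 8.0, 10 mM MgCl2, 1 mM DTT, 2.5 mM phosphoenolpyruvate, 2 mM ATP, 1 mM 4-diphosphocytidyl-2-C-methylerythritol, 1.1% DMSO, 2.4 mU IspE; incubated at 27° C.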

[7] = target: AtIspF (Arabidopsis thaliana, UniProt Q9CAK8); assay: University of Hamburg photometric enzymatic inhibition assay AtIspF; assay type: biochemical; conditions: read-out: AtIspF IC50
Outline: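 Coupled photometric assay (CMP kinase/pyruvate kinase/lactate dehydrogenase, NADH consumption) with 2.4 mU AtIspF and 1 mM 4-diphosphocytidyl-2C-methylerythritol 2-phosphate, 2 mM ATP, in 100 mM Tris-HCl pH 8.0, 10 mM MgCl2, 1.1% DMSO. Monitored at 27 °C.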

[8] = system: Burkholderia thailandensis; assay type: cell-based; conditions: preliminary screening; for BT score: score 0-3
[9] = system: Mycobacterium smegmatis; assay: Antibacterial preliminary screening MS; assay type: cell-based; conditions: for MS score: score 0-3
[10] = system: Corynebacterium xerosis; assay: Antibacterial preliminary screening CX; assay type: cell-based; conditions: score 0-3; further: key: 0 represents no inhibition; 3 is comparable to commercial antibiotic control
[11] = system: Corynebacterium pseudodiphtheriae; assay: Antibacterial preliminary screening CP; assay type: cell-based; conditions: score 0-3;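 further: 0 is no inhibition and 3 matches the commercial antibiotic control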
[12] = system: Escherichia coli; assay: Antibacterial preliminary screening EC; assay type: cell-based; conditions: score 0-3; further: key: 0 represents no inhibition; 3 is comparable to commercial antibiotic control
[13] = system: Klebsiella pneumonia; assay: Antibacterial preliminary screening KP; assay type: cell-based; conditions: score 0-3; further: key: 0 represents no inhibition; 3 is comparable to commercial antibiotic control
[14] = system: Micrococcus luteus; assay: Antibacterial preliminary screening ML; assay type: cell-based; conditions: score 0-3; further: key: 0 represents no inhibition; 3 is comparable to commercial antibiotic control
[15] = system: Bacillus cereus; assay: Antibacterial preliminary screening BC; assay type: cell-based; conditions: score 0-3
[16] = system: Pseudomonas aeruginosa; assay: Antibacterial preliminary screening PA; assay type: cell-based; conditions: for PA score: score 0-3
[17] = target: T1, Ec IspD; assay: EnzChek enzymatic activity assay Ec IspD; assay type: biochemical
Method: The EnzChek® assay has a phosphate sensitivity of 2-150 μM. To ensure there is no interference caused by assay components, three standards were performed on each plate: buffer only, without CTP and without MEP.
Here, for the plate-based assay, IspD converts MEP to CDP-ME pyrophosphate, which in turn is converted to inorganic phosphate (Pi) with the enzyme inorganic pyrophosphatase. The EnzChek® Phosphate Assay kit follows the formation of the inorganic phosphate through a reaction with 2-amino-6-mercapto-7-methylpurine riboside (MESG) and the enzyme purine nucleoside phosphorylase (PNP). This reaction converts the MESG into ribose 1-phosphate and 2-amino-6-mercapto-7-methylpurine resulting in a spectrophotometric shift in a maximum absorbance from 330 nm to 360 nm. Reactions were performed in 50 μL final volumes in 96-well clear flat bottom plates, and were initiated by addition of 50 ng purified Ec IspD. Absorbance at 360 nm was measured every 31 seconds for 20 minutes on a Synergy 2 Multi-Mode plate reader (BioTek), preheated to 37° C. Final concentration of reagents was as follows: 1×EnzChek® reaction buffer (50 mM Tris pH 7.5, 1 mM magnesium chloride (MgCl2), 100 μM sodium azide (NaN3)), 0.2 mM MESG, 1 U/ml PNP, 1 U/mL inorganic Pyrophosphatase (NEB), 200 mM CMP (Sigma), and 50 μM MEP (Echelon).

Chain of AtIspD (P69834 62-302): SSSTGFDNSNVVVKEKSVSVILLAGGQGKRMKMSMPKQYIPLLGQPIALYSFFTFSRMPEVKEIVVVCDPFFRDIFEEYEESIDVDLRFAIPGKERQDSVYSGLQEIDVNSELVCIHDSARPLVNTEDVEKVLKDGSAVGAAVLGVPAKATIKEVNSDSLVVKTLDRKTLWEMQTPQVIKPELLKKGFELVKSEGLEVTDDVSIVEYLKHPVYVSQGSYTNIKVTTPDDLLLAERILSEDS
Chain of LeIspE (P93841 89-401): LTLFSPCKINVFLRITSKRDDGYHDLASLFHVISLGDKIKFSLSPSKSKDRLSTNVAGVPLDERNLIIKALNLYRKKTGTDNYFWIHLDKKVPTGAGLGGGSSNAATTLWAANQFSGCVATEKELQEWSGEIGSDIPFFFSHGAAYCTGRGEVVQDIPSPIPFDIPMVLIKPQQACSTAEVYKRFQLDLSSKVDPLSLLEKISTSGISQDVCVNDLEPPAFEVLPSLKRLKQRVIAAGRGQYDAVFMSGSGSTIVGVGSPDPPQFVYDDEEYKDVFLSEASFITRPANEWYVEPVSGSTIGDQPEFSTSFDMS
Chain of Lycopersicon esculentum IspE (LeIspE) (P93841 89-401): as above
T1 sequence (Q46893 whole entry): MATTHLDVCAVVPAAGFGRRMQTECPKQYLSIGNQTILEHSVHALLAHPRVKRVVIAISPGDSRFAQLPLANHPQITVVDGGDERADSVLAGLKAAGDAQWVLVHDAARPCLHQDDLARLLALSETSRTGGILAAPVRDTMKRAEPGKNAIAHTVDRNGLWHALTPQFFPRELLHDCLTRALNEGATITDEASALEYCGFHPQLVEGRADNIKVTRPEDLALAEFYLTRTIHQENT
Chain of AtIspF (Q9CAK8 53-231): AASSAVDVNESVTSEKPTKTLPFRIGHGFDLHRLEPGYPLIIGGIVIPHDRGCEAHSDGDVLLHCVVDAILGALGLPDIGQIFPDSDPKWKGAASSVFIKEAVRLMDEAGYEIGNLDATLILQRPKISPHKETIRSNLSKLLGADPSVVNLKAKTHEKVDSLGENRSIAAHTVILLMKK

Row | SMILES | MtIspD melting point change [2] | MtIspD melting temp [2] | LeIspE melting point change [3] | LeIspE melting temp [3] | Bleaching ([4]; 0.15 mM) | Germination ([4]; 0.15 mM) | Root Dev. ([4]; 0.15 mM) | Bleaching ([4]; 0.3 mM) | Germination ([4]; 0.3 mM) | Root Dev. ([4]; 0.3 mM) | IC50 [5] | IC50 [6] | IC50 [7] | BT score [8] | MS score [9] | CX score [10] | CP score [11] | EC score [12] | KP score [13] | ML score [14] | further results
1 | [O-][n+]1ccccc1S [2-mercaptopyradine-N-oxide, 2-mercaptopyridine-N-oxide] |  |  |  |  |  |  |  |  |  |  |  |  |  |  |  |  |  |  |  |  | effect on thermal stability of Ec IspD [1]: did not have an effect on the thermal stability
2 | Cc1ccc(-c2nnc(-c3nc4ccccc4s3)o2)cc1 [HGN-338, 2-(benzo[d]thiazol-2-yl)-5-(p-tolyl)-1,3,4-oxadiazole] | 0.0 °C | 48.0 °C | −1.50 °C | 48.00 °C | 0 | 0 | 0 | 0 | 1 | 0 | > 500 µM | > 500 µM | > 500 µM | 0 | 0 | 0 | 0 | 0 | 0 | 0 | BC score [15]: 0; PA score [16]: 0; melting point: 155 to 160 °C
3 | Clc1ccc(-c2nnc(-c3nc4ccccc4s3)o2)cc1 [HGN-339, 2-(benzo[d]thiazol-2-yl)-5-(4-chlorophenyl)-1,3,4-oxadiazole] | 1.3 °C | 49.3 °C | −2.00 °C | 47.50 °C | 0 | 0 | 0 | 0 | 0 | 0 | 158 µM | > 500 µM | > 500 µM | 0 | 0 | 0 | 0 | 0 | 0 | 0 | BC score [15]: 0; PA score [16]: 0; melting point: 161 to 163 °C
4 | Oc1c(Br)cc(Br)cc1-c1cc2ccccc2[nH]1 [HGN-340, 2,4-dibromo-6-(1H-indol-2-yl)phenol] | 1.3 °C | 49.3 °C | 0.50 °C | 50.00 °C | 0 | 0 | 0 | 0 | 0 | 0 | 50 µM | > 500 µM | 470 ± 116 µM | 0 | 0 | 0 | 0 | 0 | 0 | 0 | BC score [15]: 2; effectiveness against Pseudomonas aeruginosa [16]: moderately effective; PA score [16]: 0; melting point: 104 to 110 °C
5 | Clc1ccc(-c2nnc(-c3nc4ccccc4[nH]3)o2)cc1 [HGN-421, 2-(1H-benzo[d]imidazole-2-yl)-5-(4-chlorophenyl)-1,3,4-oxadiazole] | 0.8 °C | 48.8 °C | −1.50 °C | 48.00 °C | 0 | 1 | 0 | 0 | 1 | 0 | 88 µM | 298 ± 49 µM | 484 ± 95 µM | 1 | 1 | 0 | 0 | 0 | 0 | 0 | antibacterial activity against Burkholderia thailandensis [8]: slight antibacterial activity; antibacterial activity against Mycobacterium smegmatis [9]: slight antibacterial activity; BC score [15]: 0; PA score [16]: 0; melting point: 250 to 255 °C
6 | FC(F)(F)c1ccc(-c2nnc(-c3nc4ccccc4[nH]3)o2)cc1 [HGN-422, 2-(1H-benzo[d]imidazol-2-yl)-5-(4-(trifluoromethyl)phenyl)-1,3,4-oxadiazole] | 1.0 °C | 49.0 °C | −3.25 °C | 46.25 °C | 0 | 0 | 0 | 0 | 0 | 0 | 251 µM | 267 µM | > 500 µM | 1 | 1 | 0 | 0 | 0 | 0 | 0 | antibacterial activity against Burkholderia thailandensis [8]: slight antibacterial activity; antibacterial activity against Mycobacterium smegmatis [9]: slight antibacterial activity; BC score [15]: 0; PA score [16]: 0; melting point: 275 to 280 °C
7 | [O-][n+]1ccccc1[S][Zn][S]c1cccc[n+]1[O-] [Zinc Pyrathione] |  |  |  |  |  |  |  |  |  |  |  |  |  |  |  |  |  |  |  |  | change in the observed melting temperature of Ec IspD [1]: −7.72 °C
8 | CC(=O)[O-].CC(=O)[O-].[Cd+2] [cadmium acetate] |  |  |  |  |  |  |  |  |  |  |  |  |  |  |  |  |  |  |  |  | change in the observed melting temperature of Ec IspD [1]: −13.53 °C
9 | CC(C)c1cc2c(c(O)c1O)[C@@]1(C(=O)O)CCCC(C)(C)[C@@H]1CC2 [carnosic acid] |  |  |  |  |  |  |  |  |  |  |  |  |  |  |  |  |  |  |  |  | IC50 [17]: 794 ± 100 µM
10 | C[CH2][Hg][Cl] [ethyl mercuric chloride] |  |  |  |  |  |  |  |  |  |  |  |  |  |  |  |  |  |  |  |  | effect on thermal stability of Ec IspD [1]: affected the stability of the enzyme

Reference: US11026426B2, “Oxadiazole and phenol derivatives as antibacterial and/or herbicidal agents” (NORTHERN ILLINOIS RESEARCH FOUNDATION, priority 2017, dated 2021)
